{"source": "paper PMC9238271", "about": "“The quorum sensing peptide EntF* promotes colorectal cancer metastasis in mice: a new factor in the host-microbiome interaction” (BMC Biology, 2022)", "test_system": "E-cadherin expression in HCT-8 cells", "experiment": "Western blot of E-cadherin expression, HCT-8 cells (EntF*, alanine and D-amino acid analogs)", "format": "cell-based", "description": "HCT-8, HT-29, and HT-116 cells were grown in DMEM medium supplied with 10% fetal bovine serum (FBS) and 1% penicillin-streptomycin. Caco-2 cells were grown in DMEM medium supplied with 10% FBS, 1% non-essential amino acid NEAA), and 1% penicillin-streptomycin. Cells were cultured at 37 °C and 5% CO2. As cells reached confluency, they were detached using 0.25% Trypsin-EDTA.\nFor Western blot analyses, HCT-8 (n = 15), HCT-116 (n = 12), Caco-2 (n = 6), and HT-29 (n = 12) cells were seeded in 6-well plates at a density of 1 × 10^6 cells/well. Twenty-four hours after seeding, all cell lines were treated with 1 μM EntF* or a placebo solution. HCT-8 cells were also tested for responsiveness to 1 μM EntF* synthetic alanine-derived analogs. For antagonist activity analysis, HCT-8 cells were treated with 1 μM Nef-M1 or 1 μM EntF*A1 alone or in combination with 500 nM EntF*. After 24 h, cells were detached from the surface and lysed in RIPA buffer (Thermo Scientific). Protein concentration was determined using the modified Lowry protein assay kit (Thermo Scientific), according to the manufacturer’s instructions. Protein samples were diluted to the same concentration (4 μg/μL) with water and diluted again 1:1 using 2x Laemmli buffer. After that, samples were boiled for 5 min at 95 °C to denature proteins and centrifuged for 5 min at 16,000g; supernatants were used for Western blot analyses. Equal amounts of total protein (20 μg/lane) were separated by SDS-PAGE on an Any kD^TM gel (Bio-Rad ) and then transferred to a PVDF membrane. Before incubation with antibodies, non-specific binding sites on the membranes were blocked using 5% skimmed milk solution (1 h). TBS buffer with 0.05% Tween 20 was used for all washing steps. Membranes were incubated overnight at 4 °C with an anti-E-cadherin primary antibody (1/1000 dilution). An HRP-conjugated anti-rabbit antibody (1/2000 dilution, 1 h incubation) was used for chemiluminescent detection. Membranes were incubated with the detection substrate for 5 min and signal detection was performed using the ChemiDoc EZ imager and Image Lab software (Bio-Rad). Signal intensity was normalized against the total protein content in each lanes.\nA quantitative approach was used to evaluate the importance of each amino acid, where the Fisher’s LSD p-values of (1) multiple comparisons between EntF* and the alanine (ALA) scan and (2) multiple comparisons between different peptides of the ALA scan are combined. Subsequently, based on the combined P-score, the amino acids were classified in 5 classes using a hierarchical cluster analysis and confirmed using the Jenks natural breaks algorithm with K = 5. CombinedPscore=1-PPBSvsALAscan*PEntF*vsALAscan", "data": [{"smiles": "CC(C)C[C@@H]1NC(=O)[C@H](CO)NC(=O)[C@H](Cc2ccccc2)NC(=O)[C@H](C(C)C)NC(=O)[C@@H](NC(=O)[C@H](CCC(=O)O)NC(=O)[C@@H](NC(=O)[C@H](CC(C)C)NC(=O)[C@H](CC(N)=O)NC(=O)[C@@H](N)CO)C(C)C)CSSC[C@@H](C(=O)N[C@@H](CC(N)=O)C(=O)O)NC(=O)[C@H](CCCCN)NC(=O)[C@H](CCCCN)NC(=O)[C@H](Cc2ccccc2)NC1=O", "note": "(single isomer, unassigned) [EntF*]", "values": [{"measurement": "effect on E-cadherin levels in HCT-8 cells", "setting": "24 h, n = 15", "value": "significant decrease"}, {"measurement": "Relative E-cadherin decrease", "setting": "Ala-scan sheet, Blot 19 (single blot), chemiluminescence band, placebo lane = 100", "value": 54.8007}, {"measurement": "E-cadherin expression relative to H2O control (= 100)", "setting": "Ala-scan sheet, Blot 20 (single blot), chemiluminescence band, placebo lane = 100", "value": 67.4208}, {"measurement": "Relative E-cadherin decrease", "setting": "Ala-scan sheet, Blot 21 (single blot), chemiluminescence band, placebo lane = 100", "value": 65.0177}, {"measurement": "E-cadherin expression relative to H2O control (= 100)", "setting": "Ala-scan sheet, Blot 24 (single blot), chemiluminescence band, Norm. Vol. relative to placebo lane = 100", "value": 28.5}, {"measurement": "E-cadherin expression relative to H2O control (= 100)", "setting": "Ala-scan sheet, Blot 25 (single blot), chemiluminescence band, Norm. Vol. relative to placebo lane = 100", "value": 21.0}, {"measurement": "E-cadherin expression relative to H2O control (= 100)", "setting": "Ala-scan sheet, Blot 26 (single blot), chemiluminescence band, Norm. Vol. relative to placebo lane = 100", "value": 35.9}, {"measurement": "E-cadherin expression relative to H2O control (= 100)", "setting": "Ala-scan sheet, Blot 27 (single blot), chemiluminescence band, Norm. Vol. relative to placebo lane = 100", "value": 217.9}, {"measurement": "E-cadherin expression relative to H2O control (= 100)", "setting": "Ala-scan, Blot 11 (single blot replicate), normalized band volume relative to Placebo = 100.0", "value": 93.8}, {"measurement": "E-cadherin expression relative to H2O control (= 100)", "setting": "Ala-scan, Blot 12 (single blot replicate), normalized band volume relative to Placebo = 100.0", "value": 85.9}, {"measurement": "E-cadherin expression relative to H2O control (= 100)", "setting": "Ala-scan, Blot 13 (single blot replicate), normalized band volume relative to Placebo = 100.0", "value": 94.6}, {"measurement": "E-cadherin expression relative to H2O control (= 100)", "setting": "Ala-scan, Blot 14 (single blot replicate), normalized band volume relative to Placebo = 100.0", "value": 84.9}, {"measurement": "E-cadherin expression relative to H2O control (= 100)", "setting": "Ala-scan, Blot 18 (single blot replicate), normalized band volume relative to Placebo = 100.0", "value": 74.8}, {"measurement": "E-cadherin expression relative to H2O control (= 100)", "setting": "D-scan, Blot 1 (replicate), Norm. Vol. relative to H2O lane = 100.0, chemiluminescence", "value": 92.9}, {"measurement": "E-cadherin expression relative to H2O control (= 100)", "setting": "D-scan, Blot 2 (replicate), Norm. Vol. relative to H2O lane = 100.0, chemiluminescence", "value": 90.1}, {"measurement": "E-cadherin expression relative to H2O control (= 100)", "setting": "D-scan, Blot 3 (replicate), Norm. Vol. relative to H2O lane = 100.0, chemiluminescence", "value": 85.4}, {"measurement": "E-cadherin expression relative to H2O control (= 100)", "setting": "D-scan, Blot 4 (replicate), Norm. Vol. relative to H2O lane = 100.0, chemiluminescence", "value": 88.3}, {"measurement": "E-cadherin expression relative to H2O control (= 100)", "setting": "D-scan, Blot 6 (replicate), Norm. Vol. relative to H2O lane = 100.0, chemiluminescence", "value": 95.4}, {"measurement": "E-cadherin expression relative to H2O control (= 100)", "setting": "D-scan, Blot 7 (replicate), Norm. Vol. relative to H2O lane = 100.0, chemiluminescence", "value": 92.1}, {"measurement": "E-cadherin expression relative to H2O control (= 100)", "setting": "D-scan, Blot 8 (replicate), Norm. Vol. relative to H2O lane = 100.0, chemiluminescence", "value": 99.2}, {"measurement": "E-cadherin expression relative to H2O control (= 100)", "setting": "D-scan, Blot 9 (replicate), Norm. Vol. relative to H2O lane = 100.0, chemiluminescence", "value": 67.6}, {"measurement": "E-cadherin expression relative to H2O control (= 100)", "setting": "D-scan, Blot 10 (replicate), Norm. Vol. relative to H2O lane = 100.0, chemiluminescence", "value": 83.3}, {"measurement": "E-cadherin expression relative to H2O control (= 100)", "setting": "D-scan, Blot 11 (replicate), Norm. Vol. relative to H2O lane = 100.0, chemiluminescence", "value": 74.5}, {"measurement": "E-cadherin expression relative to H2O control (= 100)", "setting": "D-scan, Blot 12 (replicate), Norm. Vol. relative to H2O lane = 100.0, chemiluminescence", "value": 74.5}, {"measurement": "E-cadherin expression relative to H2O control (= 100)", "setting": "H2O = 100.0, CXCL12 at 10µg/ml, mean of the replicates (row r47, unlabelled; SEM in row below)", "value": 85.8}, {"measurement": "E-cadherin expression relative to H2O control (= 100)", "setting": "H2O = 100.0, CXCL12 at 10µg/ml, replicate 1 (row r35)", "value": 92.9}, {"measurement": "E-cadherin expression relative to H2O control (= 100)", "setting": "H2O = 100.0, CXCL12 at 10µg/ml, replicate 2 (row r36)", "value": 90.1}, {"measurement": "E-cadherin expression relative to H2O control (= 100)", "setting": "H2O = 100.0, CXCL12 at 10µg/ml, replicate 3 (row r37)", "value": 85.4}, {"measurement": "E-cadherin expression relative to H2O control (= 100)", "setting": "H2O = 100.0, CXCL12 at 10µg/ml, replicate 4 (row r38)", "value": 88.3}, {"measurement": "Ala scan: Relative E-cadherin decrease", "setting": "H2O = 100.0, mean of the replicates (row r29, unlabelled; SEM in row below)", "value": 62.0}, {"measurement": "E-cadherin expression relative to H2O control (= 100)", "setting": "H2O = 100.0, replicate 5 (row r39)", "value": 95.4}, {"measurement": "E-cadherin expression relative to H2O control (= 100)", "setting": "H2O = 100.0, replicate 6 (row r40)", "value": 92.1}, {"measurement": "E-cadherin expression relative to H2O control (= 100)", "setting": "H2O = 100.0, replicate 7 (row r41)", "value": 99.2}, {"measurement": "E-cadherin expression relative to H2O control (= 100)", "setting": "H2O = 100.0, replicate 8 (row r42)", "value": 67.6}, {"measurement": "E-cadherin expression relative to H2O control (= 100)", "setting": "H2O = 100.0, replicate 9 (row r43)", "value": 83.3}, {"measurement": "E-cadherin expression relative to H2O control (= 100)", "setting": "H2O = 100.0, replicate 10 (row r44)", "value": 74.5}, {"measurement": "E-cadherin expression relative to H2O control (= 100)", "setting": "H2O = 100.0, replicate 11 (row r45)", "value": 74.5}, {"measurement": "Relative E-cadherin decrease in different cell lines, Average", "setting": "HCT-8 cells, average (EntF* n = 15, CXCL12 n = 4)", "value": 62.0}]}]}
